Measurements: US11793818B2, “Method for treating conditions associated with hyperproliferating cells comprising combined administration of a cannabinoid receptor agonist and radiation therapy” (Theralase Technologies, Inc., priority 2018, dated 2023)

Tested on: Glioma cells
Assay: Glioma cell kill (presto blue) after d9-THC pre-treatment and PDT with 14C PDC
Assay type: cell-based
Conditions: 40 μM d9-THC, no PDT
Experimental: Glioma cells were treated with delta9-tetrahydrocannabinol (“d9-THC”) for 24 hours prior to treatment with 14C PDC and light activated. Five concentrations of d9-THC were used (0, 5, 10, 20, 40 μM). As a significant effect was only observed with a d9-THC concentration of 40 μM, only the results obtained at this concentration are shown (see FIG. 1). After 24 hours, cells were treated with 14C PDC for 4 hours, PDT was performed using green light (20 J/cm^2) and plates were incubated overnight for presto blue on the following day. The PDT dose used was decreased to induce 10-15% cell kill in order to highlight any additive/synergistic effect of the combination that might otherwise be masked if a higher dose had been used.
Absolute cell kill values are shown with error bars representing standard deviations between wells. The hypothetical additive effect represents the hypothetical cell kill percentage had the combined effect merely been additive. Reading from left to right in FIG. 1: the first bar is the control; the second bar is d9-THC only; the third bar is light activated 14C PDC only; the fourth bar is hypothetical cell kill percentage of d9-THC combined with 14C PDC light activated; and the fifth bar is PDT (light activated 14C PDC) combined with the tested cannabinoid. PDT alone (light activated 14C PDC) induced 10% cell kill. 40 μM of d9-THC induced 10% cell kill.

CCCCCc1cc(O)c2c(c1)OC(C)(C)[C@@H]1CCC(C)=C[C@@H]21 [d9-THC, delta9-tetrahydrocannabinol]
cell kill, d9-THC only: 10%
